Experimental data as given in patent publication EP0626016B1, “[…] […]” (BRITISH TECHNOLOGY GROUP LIMITED, priority 1992, dated 1993).
Like-named read-outs stand apart in the source and are kept apart here.

Molecular target: T1, HRP Type VIA (Armoracia rusticana, UniProt P00433)
T1 sequence (P00433 31-338): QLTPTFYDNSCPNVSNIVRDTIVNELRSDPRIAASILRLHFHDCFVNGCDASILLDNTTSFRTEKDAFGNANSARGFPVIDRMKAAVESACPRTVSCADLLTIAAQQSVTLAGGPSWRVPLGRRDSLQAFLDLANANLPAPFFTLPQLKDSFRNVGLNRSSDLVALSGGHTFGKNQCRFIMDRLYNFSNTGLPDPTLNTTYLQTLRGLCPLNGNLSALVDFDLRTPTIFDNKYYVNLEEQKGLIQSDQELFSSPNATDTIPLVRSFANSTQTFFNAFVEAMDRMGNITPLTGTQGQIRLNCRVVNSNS

[1] = 0.1 mg/ml, 10µl test compound, control value in brackets not reported
[2] = 0.01 mg/ml, 10µl test compound, control value in brackets not reported
[3] = 1 mg/ml, 10µl test compound, control value in brackets not reported

Row | Molecule | (a) Decrease in background (without HRP with test cpd.) (0.01 mg/ml, 10µl test compound) | (b) Increase in signal (with HRP, with test cpd.) (0.01 mg/ml, 10µl test compound) | (c) Increase in signal: background ratio (0.01 mg/ml, 10µl test compound) | (a) Decrease in background (without HRP with test cpd.) (0.1 mg/ml, 10µl test compound) | (b) Increase in signal (with HRP, with test cpd.) (0.1 mg/ml, 10µl test compound) | (c) Increase in signal: background ratio (0.1 mg/ml, 10µl test compound) | (d) Signal: Background: ratio (control = with no enhancer) [1] | (a) Decrease in background (without HRP with test cpd.) (1 mg/ml, 10µl test compound) | (b) Increase in signal (with HRP, with test cpd.) (1 mg/ml, 10µl test compound) | (c) Increase in signal: background ratio (1 mg/ml, 10µl test compound) | (d) Signal: Background: ratio (control = with no enhancer) [2] | (d) Signal: Background: ratio (control = with no enhancer) [3] | (a) Decrease in background (without HRP with test cpd.) | (b) Increase in signal (with HRP, with test cpd.) | (c) Increase in signal: background ratio | (d) Signal: Background: ratio (control = with no enhancer)
1 | OCC(CO)(CO)COB(O)O [Compound 1017, pentaerythritol borate] | Y | N | N (N = no) | Y | Y | Y (Column (c) shows whether there was an increase in the signal:background ratio by over 25% of the control value (Y = yes) | 2.5 | Y | N | N (N = no) | 1.8 | 1.8 (1.8) |  |  |  | 
2 | OB(O)c1ccc2cc(O)ccc2c1 [Compound 1006, 6-hydroxy-2-naphthaleneboronic acid] | Y | N | Y (Column (c) shows whether there was an increase in the signal:background ratio by over 25% of the control value (Y = yes) | Y | N | N (N = no) | 1.5 | Y | N | N (N = no) | 5.8 | 0.3 (1.8) |  |  |  | 
3 | Clc1cc(Cl)c(OB(Oc2cc(Cl)c(Cl)cc2Cl)c2cc(Cl)c(Cl)cc2Cl)cc1Cl [Compound 1039, di-(3',4',6'-trichlorophenoxy)-3,4,6-trichlorophenylborane] |  |  |  |  |  |  |  |  |  |  |  |  | Y | N | N (key: column (a) shows whether the test compound lowered the light output from the luminol-hydrogen peroxide solution (Y = yes; N = no) | 3.4 (2.9)
4 | OB(O)c1cccc(Cl)c1Cl [Compound 1022, 2,3-dichlorophenylboronic acid] | Y | N | N (N = no) | Y | N | Y (Column (c) shows whether there was an increase in the signal:background ratio by over 25% of the control value (Y = yes) | 3.6 (2.7) | Y | N | N (N = no) | 2.2 (2.0) |  |  |  |  | 
5 | O=[N+]([O-])c1cc(B(O)O)ccc1Cl [Compound 1021, 4-chloro-3-nitrophenylboronic acid] | Y | Y | Y (Column (c) shows whether there was an increase in the signal:background ratio by over 25% of the control value (Y = yes) | Y | Y | Y (Column (c) shows whether there was an increase in the signal:background ratio by over 25% of the control value (Y = yes) | 44.5 (2.8) | Y | Y | Y (Column (c) shows whether there was an increase in the signal:background ratio by over 25% of the control value (Y = yes) | 2.3 (1.8) | 247.9 (4.5) |  |  |  | 
6 | OB(O)c1cccc2c1oc1ccccc12 [Compound 1008, 4-dibenzofuranboronic acid] | Y | N | N (N = no) | Y | N | N (N = no) | 1.5 | Y | N | N (N = no) | 1.6 | 1.3 (2.5) |  |  |  | 
7 | OB(O)c1ccc(-c2ccc(B(O)O)cc2)cc1 [Compound 1037, 4,4'-bis(phenylboronic acid)] | Y | Y | Y (Column (c) shows whether there was an increase in the signal:background ratio by over 25% of the control value (Y = yes) | Y | Y | Y (Column (c) shows whether there was an increase in the signal:background ratio by over 25% of the control value (Y = yes) | 503.3 (2.9) | Y | N | N (N = no) | 35.5 (1.9) |  |  |  |  | 

Second part, led by results:

Row | (a) Decrease in background (without HRP with test cpd.) (0.01 mg/ml, 10µl test compound) | (b) Increase in signal (with HRP, with test cpd.) (0.01 mg/ml, 10µl test compound) | (c) Increase in signal: background ratio (0.01 mg/ml, 10µl test compound) | (a) Decrease in background (without HRP with test cpd.) (0.1 mg/ml, 10µl test compound) | (b) Increase in signal (with HRP, with test cpd.) (0.1 mg/ml, 10µl test compound) | (c) Increase in signal: background ratio (0.1 mg/ml, 10µl test compound) | (d) Signal: Background: ratio (control = with no enhancer) [1] | (a) Decrease in background (without HRP with test cpd.) (1 mg/ml, 10µl test compound) | (b) Increase in signal (with HRP, with test cpd.) (1 mg/ml, 10µl test compound) | (c) Increase in signal: background ratio (1 mg/ml, 10µl test compound) | (d) Signal: Background: ratio (control = with no enhancer) [2] | (d) Signal: Background: ratio (control = with no enhancer) [3] | Molecule | (a) Decrease in background (without HRP with test cpd.) | (b) Increase in signal (with HRP, with test cpd.) | (c) Increase in signal: background ratio | (d) Signal: Background: ratio (control = with no enhancer)
8 | Y | N | N (N = no) | Y | N | N (N = no) | 3.1 (2.7) | Y | N | N (N = no) |  |  | OB(O)c1cc(Cl)ccc1Cl [Compound 1023, 2,5-dichlorophenylboronic acid] |  |  |  | 
9 | Y | N | N (N = no) | Y | N | N (N = no) | 3.2 (2.9) | Y | N | N (N = no) |  |  | BrCc1ccccc1OB(Oc1ccccc1CBr)c1ccccc1CBr [Compound 1049, 2-boromethylphenyl-di-(2'-boromethylphenoxy)borane] |  |  |  | 
10 | Y | N | N (N = no) | Y | N | N (N = no) | 3.3 (2.9) | Y | N | N (N = no) |  |  | CSCc1ccccc1B(O)O [Compound 1050, 2-(methylthiomethyl)phenylboronic acid] |  |  |  | 
11 | Y | N | N (N = no) | Y | N | N (N = no) |  | Y | N | N (N = no) |  |  | methyl-(2-tolylboronic acid)sulfoxide [Compound 1051] |  |  |  | 
